Data set [1] in a line: MTT cytotoxicity assay. The note with it: mouse, B16 cells (mouse melanoma). A general note: Tetrazolium dyes change colour on reduction, which living cells bring about.
Procedure: (§1) Human lung carcinoma (A549), mouse melanoma (B16), mouse colon carcinoma (CT26), human breast adenocarcinoma (MDA-MB-231), and human glioblastoma (U87MG) cell lines were maintained in Roswell Park Memorial Institute (RPMI)-1640 medium (Fujifilm Wako Pure Chemicals Co., Ltd., Japan) supplemented with 10% heat-inactivated fetal bovine serum (Thermo Fisher Scientific, Inc.) and 1% penicillin/streptomycin (final concentrations: 100 units/mL penicillin G and 10 μg/mL streptomycin; Thermo Fisher Scientific, Inc.). The cells were cultured at 37 °C in a humidified incubator with 5% CO2. For experiments, A549, B16, CT26, MDA-MB-231, and U87MG cells were seeded into 96-well plates at a density of 1000 cells per well. […] Following treatment, 0.5 mg/mL 3-(4,5-dimethylthiazol-2-yl)-2,5-diphenyltetrazolium bromide (MTT; Tokyo Chemical Industry Co., Ltd., Japan) was added to each well, and the plates were incubated for 4 h at 37 °C. After incubation, the medium was carefully removed, and the resulting MTT formazan product was dissolved in 100 μL of dimethyl sulfoxide (DMSO). The absorbance of the solution was measured at 590 nm using a microplate reader. The half-maximal inhibitory concentration (IC50) for each compound was calculated from semilogarithmic dose–response curves.
A short description of data set [2]: MTT cytotoxicity assay. The settings on record: human, U87MG cells (human glioblastoma).
Procedure: as §1
The subject of the next data set is CT26 tumor-bearing mice. Description: BNCT efficacy in CT26 tumor-bearing mice. The settings on record: i.v. 15 mg [10B]/kg, neutron irradiation 3 h later. Type of data set: in vivo, mouse. The protocol:
Figure 4 (A–D) Biodistribution of boron in the CT26-bearing mice at 3, 6, and 12 h post- intravenous injection of (A) BBC-IP, (B) BBC, (C) BBC-IP-HSA and (D) BPA at the dose of 15 mg [B]/kg. The data are shown as mean ± SEM (n = 3–4). (E, F) BNCT of the CT26 tumor-bearing mice intravenously injected with 15 mg [^10B]/kg of BBC-IP-HSA and BPA. (E) The tumor volume curves after thermal neutron irradiation (also see Figure S5, Supporting Information). (F) Mice body weight corresponding to the treatments in panel (E). Results are shown as the mean ± SEM (n = 5 for the groups with BBC-IP-HSA, BPA and no treatment, n = 4 for the groups with neutron only). The two-sided Student’s t-test was applied to determine statistical significance, defined as *p < 0.05, **p < 0.0001.
CT26 tumor-bearing mice were prepared by subcutaneously injecting a suspension of CT26 cells (8.0 × 10^5 cells/mouse) into the right thigh. […] The BNCT effects were assessed based on tumor volume changes. Tumor volume was calculated using the formula 0.5 × (A × B^2), where A and B represent the longest and shortest tumor diameters in millimeters, respectively. […]
(B) Body weight of the same mice treated in panel A. (C) The tumor volume curves of the individual mice after irradiation with thermal neutron. […] Significance was determined as: *p < 0.05, **p < 0.0001 using the two-sided […]

Data set [3] is described as follows: MTT cytotoxicity assay. The settings on record: human, MDA-MB-231 cells (human breast adenocarcinoma).
Procedure: as §1
Data set [4] in a line: MTT cytotoxicity assay. The settings on record: human, A549 cells (human lung carcinoma).
Procedure: as §1
Data set [5] can be described thus: MTT cytotoxicity assay. The settings on record: mouse, CT26 cells (mouse colon carcinoma).
Procedure: as §1
The test system of the next data set is CT26 cells. The experiment in a line: Biotin competition cellular uptake assay. Type of data set: cell-based, mouse. The settings on record: CT26, biotin 772 μM to 3.09 mM, 24 h. The protocol:
Figure 3 (A) Time-course evaluation of cellular uptake for BBC-IP, BBC, and BPA in A549, B16, CT26, MDA-MB-231, and U87MG cells. Compounds were incubated for 2.5, 6, and 24 h in cells, and boron concentration was measured using inductively coupled plasma optical emission spectroscopy (ICP-OES) after ashing with conc. HNO3. Data are shown as the mean ± SEM from a single experiment conducted in triplicate. (B) Biotin concentration-dependent cell uptake study of BBC-IP, BBC and BPA in CT26 cells. Boron concentration was determined after incubation with compounds at various concentrations of biotin for 24 h. (C) Intracellular distribution of BBC-IP in CT26 cells. Cells were incubated with BBC-IP (ca. 25 μg [B]/mL) for 3 h, followed by […] using an anti-closo-dodecaborate antibody and lysosomal staining with Lysotracker. Red: lysosomes stained with LysoTracker Red DND-99; Green: BBC-IP localization; Blue: nuclei stained with DAPI. Scale bars: 25 μm. (D) Intracellular distribution of BPA in CT26 cell lines. Cells were incubated with BPA (ca. 25 μg [B]/mL) for 3 h, followed by fluorescent modification with a boron sensor,[24] nucleus staining with NucleoSeeing and lysosomal staining with a lysotracker. […] The cells were incubated for another 24 h, harvested using a cell scraper, and counted. […]

For data set [6] the following is noted: stated in Introduction without reference; cited from earlier work.
Data set [7] deals with human serum albumin (HSA) (Homo sapiens, UniProt P02768). The arrangement: method as in PMID 38770220. The settings on record: ELISA, Figure S1; stated as previously reported value; read-out: dissociation constant (Kd) to HSA; cited from earlier work. On the technique in general: In an ELISA, binding on a coated surface is turned into a signal by an enzyme label.
Data set [8] deals with B16 (mouse melanoma) cells.
Procedure: as §1
In data set [9] the test system is U87MG (human glioblastoma) cells.
Procedure: as §1
The subject of data set [10] is MDA-MB-231 (human breast adenocarcinoma) cells.
Procedure: as §1
Data set [11] concerns CT26 (mouse colon carcinoma) cells.
Procedure: as §1
Data set [12] deals with A549 (human lung carcinoma) cells.
Procedure: as §1

The values below come from PMC11696430, “A Water-Soluble Small Molecule Boron Carrier Targeting Biotin Receptors for Neutron Capture Therapy” (ACS Omega, 2024).

Sequence of human serum albumin (HSA) (P02768 25-609): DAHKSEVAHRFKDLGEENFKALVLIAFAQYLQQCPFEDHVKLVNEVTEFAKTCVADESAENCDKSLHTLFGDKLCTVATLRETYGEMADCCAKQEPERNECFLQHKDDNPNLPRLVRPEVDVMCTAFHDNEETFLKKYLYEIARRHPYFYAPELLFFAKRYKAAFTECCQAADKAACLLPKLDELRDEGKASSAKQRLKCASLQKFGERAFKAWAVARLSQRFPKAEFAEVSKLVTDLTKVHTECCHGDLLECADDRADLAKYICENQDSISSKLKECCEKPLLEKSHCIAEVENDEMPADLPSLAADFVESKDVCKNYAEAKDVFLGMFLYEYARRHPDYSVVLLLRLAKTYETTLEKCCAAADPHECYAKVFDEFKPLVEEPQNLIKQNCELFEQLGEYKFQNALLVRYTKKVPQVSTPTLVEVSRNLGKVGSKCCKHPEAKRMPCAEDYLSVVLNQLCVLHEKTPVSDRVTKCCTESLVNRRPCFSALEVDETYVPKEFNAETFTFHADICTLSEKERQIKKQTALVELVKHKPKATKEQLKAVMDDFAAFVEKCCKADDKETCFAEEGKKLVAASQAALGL

As usually defined, the IC50 is the concentration at which inhibition is half-maximal. `N[C@@H](Cc1ccc(B(O)O)cc1)C(=O)O` [BPA, 4-borono-L-phenylalanine, reference compound]: the IC50 at 72 h in the data set “MTT cytotoxicity assay [1]” is 910 ± 130 µM; in “MTT cytotoxicity assay [2]”, above 1000 µM; in the data set “MTT cytotoxicity assay [3]”, above 1000 µM; in “MTT cytotoxicity assay [4]”, above 1000 µM; in “MTT cytotoxicity assay [5]”, above 1000 µM. Further, the “antitumor efficacy / tumor growth compared between agents” value in the data set on CT26 tumor-bearing mice (20-day monitoring) is recorded as “significantly higher antitumor efficacy than BBC-IP-HSA”. In the data set on CT26 tumor-bearing mice (20 days after irradiation), the “tumor suppression versus neutron-only group” value is recorded as “significantly greater tumor suppression compared to the neutron-only group”. Moreover, the “decrease of accumulation under biotin competitive conditions (up to)” value in the data set on CT26 cells is recorded as “largely unaffected”.
`O=C(O)CCCC[C@@H]1SC[C@@H]2NC(=O)N[C@@H]21` [biotin]: the water solubility result in data set [6] is “approximately 0.9 mM”.
Usually Kd stands for the constant that tells how readily two partners part at equilibrium. With “pteroyl-closo-dodecaborate conjugated with a 4-(p-iodophenyl)butyric acid moiety [PBC-IP]”, the equilibrium dissociation constant (Kd) in data set [7] was 11.7 ± 0.8 µM.
Turning to “biotin-closo-dodecaborate conjugate [BBC]”, the 50% inhibitory concentration (IC50) in [8], in [9], in data set [10], in data set [11] and in [12] was above 1000 µM in each case. The “decrease of accumulation under biotin competitive conditions (up to)” value in the data set on CT26 cells is on record as around 20%.
